According to PubChem BioAssay (NCI):
Values joined by “and” are separate entries in the source; they are usually repeats but may differ in a detail not shown here. Equal values may be shown once.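 Cells were grown in 96-well plates and exposed to each compound for 48 hours at five concentrations; endpoints were interpolated linearly between bracketing concentrations, or set to the highest concentration if not reached. The concentration for 50% growth inhibition is given as GI50. TGI: total growth inhibition.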

Legend:
Assay in all cases: DTP human tumour cell line panel, 48 h
ACHN renal = test system: ACHN renal
EKVX NSCLC = test system: EKVX NSCLC
MDA-MB-231 breast = test system: MDA-MB-231 breast
NCI-H23 lung = test system: NCI-H23 lung
OVCAR-3 ovarian = test system: OVCAR-3 ovarian
OVCAR-5 ovarian = test system: OVCAR-5 ovarian
OVCAR-8 ovarian = test system: OVCAR-8 ovarian
SK-MEL-28 melanoma = test system: SK-MEL-28 melanoma
SNB-19 CNS = test system: SNB-19 CNS
UACC-62 melanoma = test system: UACC-62 melanoma

| Compound | GI50 (ACHN renal) [µM] | TGI (ACHN renal) | TGI (EKVX NSCLC) | TGI (MDA-MB-231 breast) | GI50 (NCI-H23 lung) [µM] | TGI (NCI-H23 lung) | GI50 (OVCAR-3 ovarian) [µM] | GI50 (OVCAR-5 ovarian) [µM] | TGI (OVCAR-5 ovarian) | GI50 (OVCAR-8 ovarian) [µM] | TGI (OVCAR-8 ovarian) | GI50 (SK-MEL-28 melanoma) [µM] | TGI (SK-MEL-28 melanoma) | GI50 (SNB-19 CNS) [µM] | TGI (SNB-19 CNS) | GI50 (UACC-62 melanoma) [µM] | TGI (UACC-62 melanoma) | GI50 (EKVX NSCLC) [µM] | GI50 (MDA-MB-231 breast) [µM] | TGI (OVCAR-3 ovarian) [µM] |
| --- | --- | --- | --- | --- | --- | --- | --- | --- | --- | --- | --- | --- | --- | --- | --- | --- | --- | --- | --- | --- |
| Cc1cc(NC(=O)NC(=O)c2ccccc2NC(=O)CN)ccc1Oc1ncc(Br)cn1 | 5.25 | 40.7 µM and 80.3 µM | 39.1 µM and 49.2 µM | 5.17 µM and 14 µM | 0.331 | 15.5 µM and 13.8 µM | 0.0157 | 0.541 | 43.6 µM and 75.2 µM | 0.65 | 45.7 µM and 17.8 µM | 0.0822 | 41.2 µM and > 100 µM | 0.336 | 26.3 µM and 16.4 µM | 0.112 | 19.8 µM and 15.4 µM | – | – | – |
| Cc1ccccc1C(C(=O)NC1CCCCC1)N(C(=O)Cn1ccnc1C)c1cccc(F)c1 (configuration not stated) | > 58.7 | > 100 µM | > 100 µM | > 100 µM | > 58 | > 100 µM | > 69.5 | > 100 | > 100 µM | > 82.6 | > 100 µM | > 100 | > 100 µM | 57 | > 100 µM | 59.3 | > 100 µM | > 100 | 35.8 | > 100 |
| COc1ccc2[nH]cc(-c3nc(-c4c[nH]c5ccncc45)cs3)c2c1 | 1.66 | 3.14 µM | 4.88 µM | 3.25 µM | 1.76 | 3.85 µM | 2.18 | 2.37 | 4.74 µM | 2.37 | 6.05 µM | 1.94 | 3.44 µM | 1.97 | 3.8 µM | 1.78 | 3.35 µM | 1.99 | 1.65 | 4.07 |
| CCC(=O)c1ccc2c(c1)N(CCCN1CCN(CCO)CC1)c1ccccc1S2 | 16.2 | 32 µM | 28.1 µM | 27.4 µM | 15.9 | 31.4 µM | 15.6 | 15.7 | 31.9 µM | 16.9 | 32.7 µM | 2.75 | 7.75 µM | 18.5 | 36.1 µM | 2.2 | 4.73 µM | 13.1 | 13.1 | 29.8 |
| Oc1ccc(CN(Cc2ccc(C(F)(F)F)cc2)Cc2ccc(O)c3ncccc23)c2cccnc12 | 0.0256 | > 100 µM | > 100 µM | > 100 µM | 0.0245 | > 100 µM | 0.0319 | 0.0736 | > 100 µM | < 0.0142 | > 100 µM | 0.341 | > 100 µM | 0.0217 | > 100 µM | 0.0395 | 0.927 µM | 0.0482 | 0.0566 | 60.4 |
| O=C1OCC2=C1C(c1cccc(C(F)(F)F)c1)c1cc3c(cc1N2CCO)CCC3 (configuration not stated) | 0.441 | 9.23 µM | 9.52 µM | 6.76 µM | 0.321 | 14.5 µM | 0.161 | 0.265 | 8.97 µM | 0.203 | 8.31 µM | 1.41 | 12.1 µM | 0.215 | 8.8 µM | 0.174 | 9.15 µM | 0.278 | 0.223 | 2.21 |
